Measured values from US9725449B2, “Tricyclic compounds as anticancer agents” (BRISTOL-MYERS SQUIBB COMPANY, priority 2015, dated 2017).

target: BRD4 (Homo sapiens, UniProt O60885); assay: Time resolved fluorescence resonance energy transfer (TR-FRET) binding assay, bromodomain BRD4; conditions: one of the FRET assays described; read-out: FRET BRD4 IC50

Compound | IC50
[2H]C([2H])([2H])c1nnn(C)c1-c1cnc2c3c(OCC4CC4)nccc3n([C@H](c3ccccc3)C3CCOCC3)c2c1 [Example 130, 13-(Cyclopropylmethoxy)-5-[4-(^2H3)methyl-1-methyl-1H-1,2,3-triazol-5-yl]-8-[(S)-oxan-4-yl(phenyl)methyl]-3,8,12-triazatricyclo[7.4.0.0^2,^7]trideca-1(13),2(7),3,5,9,11-hexaene] | < 0.001 µM
Cc1nnn(C)c1-c1cnc2c3ccc(-c4c(C)nnn4C)nc3n([C@H](c3ccccc3)C3CCOCC3)c2c1 [Example 163, 5,11-Bis(dimethyl-1H-1,2,3-triazol-5-yl)-8-[(S)-oxan-4-yl(phenyl)methyl]-3,8,10-triazatricyclo[7.4.0.0^2,^7]trideca-1(9),2(7),3,5,10,12-hexaene] | < 0.001 µM
Cc1nnn(C)c1-c1cnc2c3ccc(N4CCC(C#N)CC4)nc3n([C@H](c3ccccc3F)C3CCOCC3)c2c1 [Example 274, 1-[5-(Dimethyl-1H-1,2,3-triazol-5-yl)-8-[(S)-(2-fluorophenyl)(oxan-4-yl)methyl]-3,8,10-triazatricyclo[7.4.0.0^2,^7]trideca-1(13),2(7),3,5,9,11-hexaen-11-yl]piperidine-4-carbonitrile] | < 0.01 µM
Cc1nnn(C)c1-c1cnc2c3c(OC(C)C)ncc(S(C)(=O)=O)c3n([C@H](c3ccccc3)C3CCOCC3)c2c1 [Example 57, 5-(Dimethyl-1H-1,2,3-triazol-5-yl)-10-methanesulfonyl-8-[(S)-oxan-4-yl(phenyl)methyl]-13-(propan-2-yloxy)-3,8,12-triazatricyclo[7.4.0.0^2,^7]trideca-1(13),2(7),3,5,9,11-hexaene] | < 0.001 µM
[2H]C([2H])([2H])c1nnn(C)c1-c1cnc2c3c(OCC(F)(F)F)cncc3n([C@H](c3ccccc3)C3CCOCC3)c2c1 [Example 301, 5-[4-(^2H3)Methyl-1-methyl-1H-1,2,3-triazol-5-yl]-8-[(S)-oxan-4-yl(phenyl)methyl]-13-(2,2,2-trifluoroethoxy)-3,8,11-triazatricyclo[7.4.0.0^2,^7]trideca-1(9),2(7),3,5,10,12-hexaene] | < 0.001 µM
Cc1nnn(C)c1-c1cnc2c3ccc(N4CCN(C(=O)C5CC5)CC4)nc3n([C@H](c3ccc(F)cc3)C3CCOCC3)c2c1 [Example 258, 11-(4-Cyclopropanecarbonylpiperazin-1-yl)-5-(dimethyl-1H-1,2,3-triazol-5-yl)-8-[(S)-(4-fluorophenyl)(oxan-4-yl)methyl]-3,8,10-triazatricyclo[7.4.0.0^2,^7]trideca-1(13),2(7),3,5,9,11-hexaene] | < 0.01 µM
[2H]C([2H])([2H])c1nnn(C)c1-c1cnc2c3c(OCCO)ncc(S(C)(=O)=O)c3n([C@H](c3ccccc3F)C3CCOCC3)c2c1 [Example 63, 2-({8-[(S)-(2-Fluorophenyl)(oxan-4-yl)methyl]-10-methanesulfonyl-5-[4-(^2H3)methyl-1-methyl-1H-1,2,3-triazol-5-yl]-3,8,12-triazatricyclo[7.4.0.0^2,^7]trideca-1(13),2(7),3,5,9,11-hexaen-13-yl}oxy)ethan-1-ol] | < 0.001 µM
Cc1nnn(C)c1-c1cnc2c3ccc(-c4c(C)nnn4C)nc3n([C@@H](c3ccccc3)C3CCOCC3)c2c1 [Example 164, 5,11-Bis(dimethyl-1H-1,2,3-triazol-5-yl)-8-[(R)-oxan-4-yl(phenyl)methyl]-3,8,10-triazatricyclo[7.4.0.0^2,^7]trideca-1(9),2(7),3,5,10,12-hexaene] | < 0.01 µM
[2H]C([2H])([2H])c1nnn(C)c1-c1cnc2c3c(OCC(F)F)ncc(S(C)(=O)=O)c3n([C@H](c3ccccc3)C3CCOCC3)c2c1 [Example 112, 13-(2,2-Difluoroethoxy)-10-methanesulfonyl-5-[4-(^2H3)methyl-1-methyl-1H-1,2,3-triazol-5-yl]-8-[(S)-oxan-4-yl(phenyl)methyl]-3,8,12-triazatricyclo[7.4.0.0^2,^7]trideca-1(13),2(7),3,5,9,11-hexaene] | < 0.001 µM
Cc1nnn(C)c1-c1cnc2c3ccc(N4CCOCC4)nc3n([C@H](c3ccccc3)C3CCOCC3)c2c1 [Example 178, 5-(Dimethyl-1H-1,2,3-triazol-5-yl)-11-(morpholin-4-yl)-8-[(S)-oxan-4-yl(phenyl)methyl]-3,8,10-triazatricyclo[7.4.0.0^2,^7]trideca-1(9),2(7),3,5,10,12-hexaene] | < 0.001 µM
[2H]C([2H])([2H])c1nnn(C)c1-c1cnc2c3c(OC)nc(C(C)(C)O)cc3n([C@H](c3ncccc3F)C3CCOCC3)c2c1 [Example 309, 2-{8-[(S)-(3-Fluoropyridin-2-yl)(oxan-4-yl)methyl]-13-methoxy-5-[4-(^2H3)methyl-1-methyl-1H-1,2,3-triazol-5-yl]-3,8,12-triazatricyclo[7.4.0.0^2,^7]trideca-1(9),2(7),3,5,10,12-hexaen-11-yl}propan-2-ol] | < 0.01 µM
2-{13-Methoxy-5-[4-(^2H3)methyl-1-methyl-1H-1,2,3-triazol-5-yl]-8-[(S)-oxan-4-yl(phenyl)methyl]-3,8,12-triazatricyclo[7.4.0.0^2,^7]trideca-1(13),2(7),3,5,9,11-hexaen-11-yl}propan-2-ol [Example 344] | < 0.01 µM
Cc1nnn(C)c1-c1cnc2c3ccnc(F)c3n([C@H](c3ccccc3F)C3CCOCC3)c2c1 [Example 29, 5-(Dimethyl-1H-1,2,3-triazol-5-yl)-10-fluoro-8-[(S)-(2-fluorophenyl)(oxan-4-yl)methyl]-3,8,11-triazatricyclo[7.4.0.0^2,^7]trideca-1(13),2(7),3,5,9,11-hexaene] | < 0.001 µM
COc1nccc2c3ncc(-c4c(C)nnn4C)cc3n(C(c3ccccc3F)C3CCOCC3)c12 (single isomer, unassigned) [Example 18, 5-(Dimethyl-1H-1,2,3-triazol-5-yl)-8-[(2-fluorophenyl)(oxan-4-yl)methyl]-10-methoxy-3,8,11-triazatricyclo[7.4.0.0^2,^7]trideca-1(13),2(7),3,5,9,11-hexaene] | < 0.01 µM
Cc1noc(C)c1-c1cnc2c3cnc(Cl)cc3n([C@H](c3ccc(F)cc3)C3CCOCC3)c2c1 [Example 326] | < 0.01 µM
[2H]C([2H])([2H])c1nnn(C)c1-c1cnc2c3ccc(N4CCN(CC(F)(F)F)CC4)nc3n([C@H](c3ccccc3)C3CCOCC3)c2c1 [Example 154, 5-[4-(^2H3)Methyl-1-methyl-1H-1,2,3-triazol-5-yl]-8-[(S)-oxan-4-yl(phenyl)methyl]-11-[4-(2,2,2-trifluoroethyl)piperazin-1-yl]-3,8,10-triazatricyclo[7.4.0.0^2,^7]trideca-1(9),2(7),3,5,10,12-hexaene] | < 0.01 µM
COc1nccc2c3ncc(-c4c(C)nnn4C)cc3n([C@H](c3ccccc3)C3CCOCC3)c12 [Example 13, 5-(Dimethyl-1H-1,2,3-triazol-5-yl)-10-methoxy-8-[(S)-oxan-4-yl(phenyl)methyl]-3,8,11-triazatricyclo[7.4.0.0^2,^7]trideca-1(13),2(7),3,5,9,11-hexaene] | < 0.001 µM
Cc1nnn(C)c1-c1cnc2c3ccc(N4CCC(S(C)(=O)=O)CC4)nc3n([C@H](c3ccccc3)C3CCOCC3)c2c1 [Example 192, 5-(Dimethyl-1H-1,2,3-triazol-5-yl)-11-(4-methanesulfonylpiperidin-1-yl)-8-[(S)-oxan-4-yl(phenyl)methyl]-3,8,10-triazatricyclo[7.4.0.0^2,^7]trideca-1(9),2(7),3,5,10,12-hexaene] | < 0.001 µM
[2H]C([2H])([2H])c1nnn(C)c1-c1cnc2c3cnc(Cl)cc3n([C@H](c3ncccc3F)C3CCOCC3)c2c1 (stereo in doubt) [Example 314, 11-Chloro-8-[(3-fluoropyridin-2-yl)(oxan-4-yl)methyl]-5-[4-(^2H3)methyl-1-methyl-1H-1,2,3-triazol-5-yl]-3,8,12-triazatricyclo[7.4.0.0^2,^7]trideca-1(9),2(7),3,5,10,12-hexaene] | < 0.01 µM
COc1ncc(S(C)(=O)=O)c2c1c1ncc(-c3c(C)nnn3C)cc1n2C(c1ccccc1)C1CCC(F)(F)CC1 (single isomer, unassigned) [Example 91, 8-[(4,4-Difluorocyclohexyl)(phenyl)methyl]-5-(dimethyl-1H-1,2,3-triazol-5-yl)-10-methanesulfonyl-13-methoxy-3,8,12-triazatricyclo[7.4.0.0^2,^7]trideca-1(13),2(7),3,5,9,11-hexaene] | < 1.5 µM
Cc1nnn(C)c1-c1cnc2c3c(=O)[nH]c(Cl)cc3n(C(c3ncccc3F)C3CCOCC3)c2c1 (stereo not drawn) [Example 307, 11-Chloro-8-[(3-fluoropyridin-2-yl)(oxan-4-yl)methyl]-5-[4-(^2H3)methyl-1-methyl-1H-1,2,3-triazol-5-yl]-3,8,12-triazatricyclo[7.4.0.0^2,^7]trideca-1(9),2(7),3,5,10-pentaen-13-one] | < 0.01 µM
CCOP(=O)(CCNc1ccc2c3ncc(-c4c(C)nnn4C)cc3n([C@H](c3ccccc3)C3CCOCC3)c2n1)OCC [Example 215, Diethyl (2-{[5-(dimethyl-1H-1,2,3-triazol-5-yl)-8-[(S)-oxan-4-yl(phenyl)methyl]-3,8,10-triazatricyclo[7.4.0.0^2,^7]trideca-1(9),2(7),3,5,10,12-hexaen-11-yl]amino}ethyl)phosphonate] | < 0.01 µM
Cc1nnn(C)c1-c1cnc2c3ccc(N4CC5CC4CS5(=O)=O)nc3n([C@H](c3ccccc3)C3CCOCC3)c2c1 (stereo partly drawn) [Example 214, 5-[5-(Dimethyl-1H-1,2,3-triazol-5-yl)-8-[(S)-oxan-4-yl(phenyl)methyl]-3,8,10-triazatricyclo[7.4.0.0^2,^7]trideca-1(9),2(7),3,5,10,12-hexaen-11-yl]-2λ^6-thia-5-azabicyclo[2.2.1]heptane-2,2-dione] | < 0.001 µM
Cc1nnn(C)c1-c1cnc2c3ccc(-c4cnn(C(C)C)c4)nc3n([C@H](c3ccccc3)C3CCOCC3)c2c1 [Example 149, 5-(Dimethyl-1H-1,2,3-triazol-5-yl)-8-[(S)-oxan-4-yl(phenyl)methyl]-11-[1-(propan-2-yl)-1H-pyrazol-4-yl]-3,8,10-triazatricyclo[7.4.0.0^2,^7]trideca-1(13),2(7),3,5,9,11-hexaene] | < 0.01 µM
